In patent US20230303540A1 (Merck Sharp & Dohme LLC, priority 2020, published 2023):

What follows are compounds tested against GST-tagged truncated human mutant G2019S LRRK2 (Homo sapiens, UniProt Q5S007, G2019S) (assay: LRRK2 G2019S Km ATP LanthaScreen assay). Settings: 134 μM ATP (Km ATP), LRRKtide substrate, mean IC50 values; read-out: LRRK2 pIC50 (converted).
Format: biochemical
How it was run: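 LanthaScreen TR-FRET read with fluorescein-LRRKtide and 134 μM ATP (Km) in Tris pH 8.5/10 mM MgCl2 buffer. The enzyme was preincubated 15 min with compound at room temperature, and the reaction ran 90 min at ambient temperature. Stopped with EDTA plus Tb anti-phospho-LRRKtide antibody; the 520/495 nm ratio gave a 4-parameter logistic IC50, mean of several runs.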

Compound | IC50 [nM]
Cc1cc2cnc(Nc3cnn(C4CC4)c3C)nc2cc1N1CCN(C2(C)COC2)CC1 [Ex-5.11, N-(1-cyclopropyl-5-methyl-1H-pyrazol-4-yl)-6-methyl-7-[4-(3-methyloxetan-3-yl)piperazin-1-yl]quinazolin-2-amine] | 2.82
CC1(N2CCN(c3cc4nc(Nc5cnn(C6CC6)c5Cl)ncc4cc3Cl)CC2)COC1 [Ex-4.17, 6-chloro-N-(5-chloro-1-cyclopropyl-1H-pyrazol-4-yl)-7-[4-(3-methyloxetan-3-yl)piperazin-1-yl]quinazolin-2-amine] | 2.32
Cc1c(Nc2ncc3cc(Cl)c(N4CCN(C5(C)COCC5O)CC4)cc3n2)cnn1C1CC1(F)F (single isomer, unassigned) [Ex-6.41, (3S,4S) or (3R,4R) 4-[4-(6-chloro-2-{[1-(2,2-(R) or (S)difluorocyclopropyl)-5-methyl-1H-pyrazol-4-yl]amino}quinazolin-7-yl)piperazin-1-yl]-4-methyloxolan-3-ol] | 32.9
CC(C)Nc1ccc2cnc(Nc3cnn(C4CCN(C5(C)COC5)CC4)c3Cl)nc2c1Cl [Ex-3.53, 8-chloro-N~2~-{5-chloro-1-[1-(3-methyloxetan-3-yl)piperidin-4-yl]-1H-pyrazol-4-yl}-N~7~- (propan-2-yl)quinazoline-2,7-diamine] | 6.88
CCn1ncc(Nc2ncc3ccc(N4C(=O)C5CCC4C5)cc3n2)c1C (centres unmarked) [Ex-7.19, 2-{2-[(1-ethyl-5-methyl-1H-pyrazol-4-yl)amino]quinazolin-7-yl}-2-azabicyclo[2.2.1]heptan-3-one] | 2.53
CC(C)(O)Cn1cc(Nc2ncc3cc(Cl)c(N4CCC(O)CC4)cc3n2)cn1 [Ex-3.10, 1-(6-chloro-2-{[1-(2-hydroxy-2-methylpropyl)-1H-pyrazol-4-yl]amino}quinazolin-7-yl)piperidin-4-ol] | 0.407
CCC1(N2CCN(c3cc4nc(Nc5cnn(C6(C)CC6)c5Cl)ncc4cc3Cl)CC2)COC1 [Ex-4.29, 6-chloro-N-[5-chloro-1-(1-methylcyclopropyl)-1H-pyrazol-4-yl]-7-[4-(3-ethyloxetan-3-yl)piperazin-1-yl]quinazolin-2-amine] | 5.28
CC1(N2CCN(c3cc4nc(Nc5cnn(C(F)F)c5Cl)ncc4cc3Cl)CC2)COCC1O (single isomer, unassigned) [Ex-3.59, (3R,4R) or (3S,4S) 4-(4-(6-chloro-2-((5-chloro-1-(difluoromethyl)-1H-pyrazol-4-yl)amino)quinazolin-7-yl)piperazin-1-yl)-4-methyltetrahydrofuran-3-ol] | 0.178
OC1COCC1N1CCN(c2cc3nc(Nc4cnn(C(F)F)c4)ncc3cc2Cl)CC1 (single isomer, unassigned) [Ex-6.46, (3S,4S) or (3R,4R) 4-(4-(6-chloro-2-((1-(difluoromethyl)-1H-pyrazol-4-yl)amino)quinazolin-7-yl)piperazin-1-yl)tetrahydrofuran-3-ol] | 18.4
Cn1ncc(Nc2ncc3ccc(N4C(=O)C5CCC4C5)cc3n2)c1C(F)(F)F (single isomer, unassigned) [Ex-4.4, 2-(2-{[1-methyl-5-(trifluoromethyl)-1H-pyrazol-4-yl]amino}quinazolin-7-yl)-2-azabicyclo[2.2.1]heptan-3-one] | 24.6
Cc1nscc1Nc1ncc2cc(Cl)c(N3CCN(C4(C)COC4)CC3)cc2n1 [Ex-4.67, 6-chloro-7-[4-(3-methyloxetan-3-yl)piperazin-1-yl]-N-(3-methyl-1,2-thiazol-4-yl)quinazolin-2-amine] | 23.8
OC1CCN(c2cc3nc(Nc4cnn(C5CC5)c4Cl)ncc3cc2Cl)CC1 [Ex-3.8, 1-{6-chloro-2-[(5-chloro-1-cyclopropyl-1H-pyrazol-4-yl)amino]quinazolin-7-yl}piperidin-4-ol] | 2.53
CC1CN(C2COCC2O)CCN1c1cc2nc(Nc3cnn(C4CC4)c3Cl)ncc2cc1Cl (single isomer, unassigned) [Ex-12.9, (3S,4S) or (3R, 4R)-4-((R) or (S)-4-(6-chloro-2-((5-chloro-1-cyclopropyl-1H-pyrazol-4-yl)amino)quinazolin-7-yl)-3-methylpiperazin-1-yl)tetrahydrofuran-3-ol] | 8.64
CC1(N2CCN(c3cc4nc(Nc5cnn6c5CCC6)ncc4cc3Cl)CC2)COC1 [Ex-4.20, 6-chloro-N-(5,6-dihydro-4H-pyrrolo[1,2-b]pyrazol-3-yl)-7-[4-(3-methyloxetan-3-yl)piperazin-1-yl]quinazolin-2-amine] | 2.59
CC1CCN1c1cc2nc(Nc3cnn(C4CCN(C5(C)COC5)CC4)c3)ncc2cc1Cl (centres unmarked) [Ex-4.11, 6-chloro-7-(2-methylazetidin-1-yl)-N-{1-[1-(3-methyloxetan-3-yl)piperidin-4-yl]-1H-pyrazol-4-yl}quinazolin-2-amine] | 35.3
Cc1cc2cnc(Nc3cnn(C45CC(C4)C5)c3Cl)nc2cc1N1CCN(C2(C)COCC2O)CC1 (single isomer, unassigned) [Ex-13.4, (3S,4S) or (3R, 4R)-4-(4-(2-((1-(bicyclo[1.1.1]pentan-1-yl)-5-chloro-1H-pyrazol-4-yl)amino)-6-methylquinazolin-7-yl)piperazin-1-yl)-4-methyltetrahydrofuran-3-ol] | 0.267
Cc1c(Nc2ncc3ccc(N4C(=O)OC[C@@H]4C)cc3n2)cnn1C1CCOCC1 [Ex-1.48, (4S)-4-methyl-3-(2-{[5-methyl-1-(oxan-4-yl)-1H-pyrazol-4-yl]amino}quinazolin-7-yl)-1,3-oxazolidin-2-one] | 0.625
C[C@@]1(O)COCC12CCN(c1cc3nc(Nc4cnn(C5CC5)c4Cl)ncc3cc1Cl)CC2 [Ex-3.5] | 1.54
CC1(N2CCN(c3cc4nc(Nc5cnn(C(F)F)c5)ncc4cc3Cl)CC2)COC1 [Ex-4.57, 6-chloro-N-[1-(difluoromethyl)-1H-pyrazol-4-yl]-7-[4-(3-methyloxetan-3-yl)piperazin-1-yl]quinazolin-2-amine] | 4.13
Cc1cc2cnc(Nc3cnn(C45CC(C4)C5)c3Cl)nc2cc1N1CCN(C2COCC2O)CC1 (single isomer, unassigned) [Ex-5.13, (3S,4S) or (3R,4R) 4-(4-(2-((1-(bicyclo[1.1.1]pentan-1-yl)-5-chloro-1H-pyrazol-4-yl)amino)-6-methylquinazolin-7-yl)piperazin-1-yl)tetrahydrofuran-3-ol] | 1.05
CC1(N2CCN(c3cc4nc(Nc5cnn(CC6(C#N)CC6)c5)ncc4cc3Cl)CC2)COC1 [Ex-4.53, 1-{[4-({6-chloro-7-[4-(3-methyloxetan-3-yl)piperazin-1-yl]quinazolin-2-yl}amino)-1H-pyrazol-1-yl]methyl}cyclopropane-1-carbonitrile] | 1.82
CC(C)n1ncc(Nc2ncc3cc(Cl)c(N4CCN(C5(C)COCC5O)CC4)cc3n2)c1C(F)F (single isomer, unassigned) [Ex-6.50, (3S,4S) or (3R,4R) 4-(4-(6-chloro-2-((5-(difluoromethyl)-1-isopropyl-1H-pyrazol-4-yl)amino)quinazolin-7-yl)piperazin-1-yl)-4-methyltetrahydrofuran-3-ol] | 0.08
CC1(N2CCN(c3cc4nc(Nc5ccn(CC(F)(F)F)n5)ncc4cc3Cl)CC2)COC1 [Ex-4.63, 6-chloro-7-[4-(3-methyloxetan-3-yl)piperazin-1-yl]-N-[1-(2,2,2-trifluoroethyl)-1H-pyrazol-3-yl]quinazolin-2-amine] | 28.3
